{"source": "paper PMC10350917", "about": "(Journal of Medicinal Chemistry, 2023)", "key": {"ADC-7": {"target": "ADC-7 (Acinetobacter baumannii, UniProt Q6DRA1)", "test": "Inhibition kinetics (competition with nitrocefin), ADC-7", "type": "biochemical", "details": "100 μM nitrocefin, 3 min pre-incubation, Cheng–Prusoff corrected", "protocol": "(§1) For inhibition kinetics, utilizing nitrocefin (NCF) as a colorimetric substrate, the inhibition constant (Ki) of MB076 and S02030 BATSI with ADCs was determined using competition kinetics as previously described.[10],[25],[28],[34] The measurements of the initial velocities were performed with the addition of 100 μM NCF after a 3 min pre-incubation of the enzyme (2 nM) with increasing concentration of the inhibitor. […] The Ki value was corrected for the NCF affinity (KM values for each ADC variant listed in Table 1) with the Cheng–Prusoff[35] equation: [drawing 2]"}, "[1]": {"test_system": "ADC-212 in pBCSK(−) E. coli DH10B", "test": "Broth microdilution AST, ADC-212", "type": "cell-based", "protocol": "(§2) Susceptibility testing to standard antibiotics was performed by broth microdilution or agar dilution using an Oxoid replicator according to 2021 Clinical and Laboratory Standards Institute (CLSI) guidelines. MICs for CAZ, CTX, FEP, and TOL were determined using cation-adjusted Mueller Hinton MH broth, and MICs for FDC were done in iron-depleted cation-adjusted MH broth according to CLSI methods. MB076, S02030, and VAB were used at a fixed concentration of 10 mg/L. All MICs were interpreted according to the 2021 CLSI guidelines.[43]\n(§3) blaADC-7 pBCSK- was cloned and expressed in E. coli DH10B cells as previously described.[44] All other blaADC variants were synthesized by GenScript according to the blaADC-7 pBCSK- strategy, cloning into the XbaI/BamHI sites of the pBCSK- vector."}, "ADC-33 [2]": {"target": "T1, ADC-33 (Acinetobacter baumannii, UniProt A7Y407)", "test": "Inhibition kinetics (competition with nitrocefin), ADC-33", "type": "biochemical", "details": "100 μM nitrocefin, 3 min pre-incubation", "protocol": "as §1"}, "in vitro": {"test": "in vitro", "details": "human, plasma, pH 7.4", "protocol": "(§4) The in vitro stability of MB076 and S02030 was evaluated by incubating the compounds in both buffer (pH 7.4) and human plasma at 37 °C over 48 h. Half-lives (t1/2) were then calculated for each compound.\n(§5) Plasma and buffer stability samples were analyzed by monitoring the disappearance of the compounds using high-performance liquid chromatography-mass spectrometry (LC–MS) techniques.\nHalf-lives (t1/2) were calculated in Origin using a one-phase decay model with t1/2 = ln(2)/b, where b is the slope of a linear plot of natural logarithm (ln) of the remaining compound concentration (C) versus incubation time. Each condition was tested in triplicate."}, "ADC variants": {"target": "ADC variants", "test": "Inhibition kinetics, statement for all ADC variants", "type": "biochemical, Acinetobacter baumannii", "details": "bound stated for all ADC variants of the study", "protocol": "as §1"}, "[3]": {"test_system": "ADC-33 in pBCSK(−) E. coli DH10B", "test": "Agar dilution AST, ADC-33", "type": "cell-based", "protocol": "as §2, §3"}, "ADC-162": {"target": "ADC-162 (Acinetobacter baumannii, UniProt A0A2H4PPJ8)", "test": "Inhibition kinetics (competition with nitrocefin), ADC-162", "type": "biochemical", "protocol": "as §1"}, "physchem": {"test": "physchem", "details": "buffer, pH 7.4", "protocol": "as §4, §5\nStandard solutions were prepared by adding the compound in DMSO (2.5 μM) to 0.1 M phosphate buffer pH 7.4 and MeOH. Solutions were vortexed, filtered, and analyzed by LC–MS (At=0). Samples were then prepared by adding a solution of the compound in DMSO (2.5 μM) to phosphate buffer pH 7.4 and incubating at 37 °C. At suitable time intervals, the reaction was stopped by the addition of MeOH. The solutions were vortexed and filtered. Degradation time courses were followed by LC–MS enabling the quantitation of compounds. Half-lives (t1/2) were calculated in Origin using a one-phase decay model with t1/2 = ln(2)/b, where b is the slope of a linear plot of natural logarithm (ln) of the remaining compound concentration (C) versus incubation time. Each condition was tested in triplicate."}, "ADC-30": {"target": "ADC-30 (Acinetobacter baumannii, UniProt A7XM81)", "test": "Inhibition kinetics (competition with nitrocefin), ADC-30", "type": "biochemical", "details": "100 μM nitrocefin, 3 min pre-incubation", "protocol": "as §1"}, "[4]": {"test_system": "ADC-219 in pBCSK(−) E. coli DH10B", "test": "Broth microdilution AST, ADC-219", "type": "cell-based", "details": "Escherichia coli, E. coli DH10B ADC-219, MB076 fixed at 10 mg/L in combinations, FDC in iron-depleted broth", "protocol": "as §2, §3"}, "[5]": {"test_system": "ADC-212 in pBCSK(−) E. coli DH10B", "test": "Agar dilution AST, ADC-212", "type": "cell-based", "details": "Escherichia coli, E. coli DH10B ADC-212, MB076, S02030, VAB fixed at 10 mg/L", "protocol": "as §2, §3"}, "[6]": {"test_system": "ADC-33 in pBCSK(−) E. coli DH10B", "test": "Broth microdilution AST, ADC-33", "type": "cell-based", "details": "Escherichia coli, E. coli DH10B ADC-33, MB076 fixed at 10 mg/L in combinations, FDC in iron-depleted broth", "protocol": "as §2, §3"}, "ADC-33 [7]": {"target": "T1, ADC-33", "details": "ADC-33; substrate", "protocol": "Steady-state kinetic parameters were determined by combining pure enzyme with antibiotic substrates in 50 mM NaH2PO4, pH 7.4 at room temperature. Changes in absorbance were measured on a Cary 60 UV–Vis spectrophotometer (Agilent Technologies) and converted to velocity using the change in extinction coefficient specific to nitrocefin (ε482 = 17,400 M^–1·cm^–1), cephalothin (ε262 = 7660 M^–1·cm^–1), ceftazidime (ε260 = 8660 M^–1·cm^–1), cefotaxime (ε260 = 7500 M^–1·cm^–1), cefepime (ε260 = 750 M^–1·cm^–1), cefiderocol (ε259 = 9430 M^–1·cm^–1), and ceftolozane (ε254 = 6810 M^–1·cm^–1). Initial velocities were fit to the Michaelis–Menten equation yielding kcat and KM values. For ADC/substrate combinations in which the KM was too large to accurately determine both kcat and KM values, the initial velocities at kcat/KM values were calculated from linear fits of vo in low [S] ranges (<0.08 × KM)."}, "[8]": {"test_system": "ADC-162 in pBCSK(−) E. coli DH10B", "test": "Agar dilution AST, ADC-162", "type": "cell-based", "details": "Escherichia coli", "protocol": "as §2, §3"}, "[9]": {"test_system": "ADC-7 in pBCSK(−) E. coli DH10B", "test": "Broth microdilution AST, ADC-7", "type": "cell-based", "details": "Escherichia coli, E. coli DH10B ADC-7, MB076 fixed at 10 mg/L in combinations, FDC in iron-depleted broth", "protocol": "as §2, §3"}, "[10]": {"test_system": "ADC-30 in pBCSK(−) E. coli DH10B", "test": "Broth microdilution AST, ADC-30", "type": "cell-based", "details": "Escherichia coli, E. coli DH10B ADC-30, MB076 fixed at 10 mg/L in combinations, FDC in iron-depleted broth", "protocol": "as §2, §3"}, "[11]": {"test_system": "ADC-219 in pBCSK(−) E. coli DH10B", "test": "Agar dilution AST, ADC-219", "type": "cell-based", "details": "Escherichia coli, E. coli DH10B ADC-219, MB076, S02030, VAB fixed at 10 mg/L", "protocol": "as §2, §3"}, "[12]": {"test_system": "ADC-7 in pBCSK(−) E. coli DH10B", "test": "Agar dilution AST, ADC-7", "type": "cell-based", "details": "Escherichia coli, E. coli DH10B ADC-7, MB076, S02030, VAB fixed at 10 mg/L", "protocol": "as §2, §3"}, "[13]": {"test_system": "ADC-30 in pBCSK(−) E. coli DH10B", "test": "Agar dilution AST, ADC-30", "type": "cell-based", "details": "Escherichia coli, E. coli DH10B ADC-30, MB076, S02030, VAB fixed at 10 mg/L", "protocol": "as §2, §3"}}}
{"smiles": "Nc1nnc(SCC(=O)N[C@@H](Cn2cc(C(=O)O)nn2)B(O)O)s1", "note": "[MB076, (R)-1-(2-(2-((5-Amino-1,3,4-thiadiazol-2-yl)thio)acetamido)-2-boronoethyl)-1H-1,2,3-triazole-4-carboxylic Acid]", "values": [{"measurement": "Ki", "setting": "ADC-7", "result": "210 ± 16", "unit": "nM"}, {"measurement": "reduction of the CTX MIC by MB076", "setting": "[1]; ADC-212, MB076 10 mg/L", "result": 3, "unit": "fold doubling dilution"}, {"measurement": "Ki", "setting": "ADC-33 [2]", "result": "100 ± 4", "unit": "nM"}, {"measurement": "half-life at 2.5 μM", "setting": "in vitro", "result": 29, "unit": "h"}, {"measurement": "Ki", "setting": "ADC variants", "result": "< 1000", "unit": "nM"}, {"measurement": "increase of susceptibility to CAZ relative to S02030", "setting": "[3]; ADC-33 variant, inhibitors 10 mg/L", "result": 3, "unit": "fold"}, {"measurement": "Ki", "setting": "ADC-162", "result": "790 ± 39", "unit": "nM"}, {"measurement": "half-life", "setting": "physchem", "result": 33, "unit": "h"}, {"measurement": "Ki", "setting": "ADC-30", "result": "58 ± 5", "unit": "nM"}]}
{"smiles": "CC(C)(O/N=C(\\C(=O)N[C@@H]1C(=O)N2C(C(=O)[O-])=C(C[n+]3ccccc3)CS[C@H]12)c1csc(N)n1)C(=O)O", "note": "[ceftazidime]", "values": [{"measurement": "MIC", "setting": "[4]", "result": 256, "unit": "µg/mL"}, {"measurement": "MIC", "setting": "[5]", "result": 256, "unit": "µg/mL"}, {"measurement": "MIC", "setting": "[6]", "result": 2050, "unit": "µg/mL"}, {"measurement": "kcat", "setting": "ADC-33 [7]", "result": 3.71, "unit": "s^–1"}, {"measurement": "MIC", "setting": "[1]; Escherichia coli, E. coli DH10B ADC-212, MB076 fixed at 10 mg/L in combinations, FDC in iron-depleted broth", "result": 512, "unit": "µg/mL"}, {"measurement": "MIC", "setting": "[8]", "result": 128, "unit": "µg/mL"}, {"measurement": "MIC", "setting": "[9]", "result": 64, "unit": "µg/mL"}, {"measurement": "MIC", "setting": "[10]", "result": 128, "unit": "µg/mL"}, {"measurement": "MIC", "setting": "[11]", "result": 64, "unit": "µg/mL"}, {"measurement": "MIC", "setting": "[3]; Escherichia coli, E. coli DH10B ADC-33, MB076, S02030, VAB fixed at 10 mg/L", "result": 1020, "unit": "µg/mL"}, {"measurement": "MIC", "setting": "[12]", "result": 64, "unit": "µg/mL"}, {"measurement": "MIC", "setting": "[13]", "result": 64, "unit": "µg/mL"}]}
